Assay results: EP0326329B1, “Quinazoline derivatives useful as insecticides” (Dow AgroSciences LLC, priority 1988, dated 1989)

Assays:
Type in all cases: in vivo
[1] = tested on: Pyricularia oryzae (rice blast); details: disease control rating, foliar spray, host rice; 400 ppm (+++ at 100 ppm)
[2] = tested on: Erysiphe graminis tritici (powdery mildew); assay: Greenhouse Test 1, foliar spray fungicide screen (POWD MDEW), host wheat; details: disease control rating, 400 ppm (+++ at 100 ppm)
[3] = tested on: Twospotted spider mites (Tetranychus urticae Koch); assay: Mite/insect screen, sprayed squash cotyledons (SM); details: Tetranychus urticae, percent mortality, read-out: SM RESULTS %; for mortality at 200 ppm: spray rate 200 ppm; for mortality at 400 ppm: spray rate 400 ppm
Summary of the method: (§1)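 Mortality and phytotoxicity read after standard exposure periods on sprayed squash: cotyledons for melon aphids and twospotted spider mites, excised leaves placed with southern armyworm larvae. Spray solutions were water dilutions of acetone/alcohol stocks containing TOXIMUL R and S emulsifiers, applied to runoff at 10 psi and air-dried one hour.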

[4] = tested on: melon aphids (Aphis gossypii Glover); assay: Mite/insect screen, sprayed squash cotyledons (MA); details: Aphis gossypii, percent mortality, read-out: MA RESULTS %; for mortality at 200 ppm: spray rate 200 ppm; for mortality at 400 ppm: spray rate 400 ppm
Summary of the method: as §1

[5] = tested on: Botrytis cinerea (gray mold); assay: Greenhouse Test 1, foliar spray fungicide screen (GRAY MOLD), host grape berries; details: disease control rating, 400 ppm (+++ at 100 ppm)
[6] = tested on: Puccinia recondita tritici (leaf rust); assay: Greenhouse Test 1, foliar spray fungicide screen (LEAF RUST), host wheat; details: disease control rating, 400 ppm (+++ at 100 ppm)
[7] = tested on: Pseudoperonospora cubensis (downy mildew); assay: Greenhouse Test 1, foliar spray fungicide screen (DOWN MDEW), host squash; details: disease control rating, 400 ppm (+++ at 100 ppm)
[8] = tested on: southern armyworm (Spodopetra eridania Cramer); assay: Mite/insect screen, sprayed squash leaves (SAW); details: Spodoptera eridania, percent mortality, read-out: SAW RESULTS %; for mortality at 200 ppm: spray rate 200 ppm; for mortality at 400 ppm: spray rate 400 ppm
Summary of the method: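 For the armyworm test, two uninfested sprayed leaves were excised, once dry for an hour, and placed in a Petri dish holding larvae. Spray solutions came from an emulsifier-containing 50:50 acetone/alcohol formulation diluted with water and were applied to runoff.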

[9] = tested on: Southern corn rootworm (Diabrotica undecimpuctata howardi Barber); assay: Mite/insect screen, soil treatment (CRW); details: Diabrotica, percent mortality, soil treatment, read-out: CRW RESULTS %; for mortality at 12 ppm: CRW rate 12.00 ppm; for mortality at 24 ppm: CRW rate 24.00 ppm
Summary of the method: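 Compounds dissolved in acetone/alcohol (50:50) with Toximul R/S emulsifiers, diluted with water. Soil (15 g, with presoaked corn seed) treated with 1 mL test solution, dried 6–12 h, then five 2–3 instar larvae added; held at 23°C. Percent mortality and phytotoxicity scored after standard exposure periods.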

Structure (SMILES) | RICE BLAST [1] | POWD MDEW [2] | mortality at 200 ppm [3] | mortality at 400 ppm [3] | mortality at 200 ppm [4] | mortality at 400 ppm [4] | GRAY MOLD [5] | LEAF RUST [6] | DOWN MDEW [7] | mortality at 200 ppm [8] | mortality at 400 ppm [8] | mortality at 12 ppm [9] | mortality at 24 ppm [9]
Clc1cccc2c(NCCc3cccc(Oc4ccccc4)c3)ncnc12 [Example 166, 8-chloro-N-[2-(3-phenoxyphenyl)ethyl]-4-quinazolinamine] | ++ (++ = 90-100% control at 400 ppm) | + (+ = 20-89% control at 400 ppm) | 0% | 0% | 0% | 60% | - (- = 0-19% control at 400 ppm) | +++ (+++ = 90-100% control at 100 ppm) | + (+ = 20-89% control at 400 ppm) | 0% | 0% | 0% | 0%
CC(C)Oc1cccc(CCOc2ncnc3ccccc23)c1 [Example 146, 4-[2-[3-(1-methylethoxy)phenyl]ethoxy]quinazoline] | +++ (+++ = 90-100% control at 100 ppm) | ++ (++ = 90-100% control at 400 ppm) | 100% | 60% | 100% | 80% | + (+ = 20-89% control at 400 ppm) | ++ (++ = 90-100% control at 400 ppm) | +++ (+++ = 90-100% control at 100 ppm) | 0% | 0% | 0% | 0%
CC(C)(C)c1ccc(CCOc2nc(C(Cl)(Cl)Cl)nc3ccccc23)cc1 [Example 172, 2-(trichloromethyl)-4-[2-[4-(t-butyl)phenyl]ethoxy]quinazoline] | - (- = 0-19% control at 400 ppm) | - (- = 0-19% control at 400 ppm) | 0% | 0% | 40% | 0% | - (- = 0-19% control at 400 ppm) | - (- = 0-19% control at 400 ppm) | - (- = 0-19% control at 400 ppm) | 0% | 0% | 100% | 0%
Cc1cccc2c(OCCc3ccc(C(C)(C)C)cc3)ncnc12 [Example 139, 8-methyl-4-[2-[4-(1,1-dimethylethyl)phenyl]ethoxy]quinazoline] | +++ (+++ = 90-100% control at 100 ppm) | + (+ = 20-89% control at 400 ppm) | – | 100% | 30% | 0% | - (- = 0-19% control at 400 ppm) | + (+ = 20-89% control at 400 ppm) | ++ (++ = 90-100% control at 400 ppm) | 0% | 0% | 0% | 0%
CC(C)(C)c1ccc(CCCOc2ncnc3ccccc23)cc1 [Example 138, 4-[3-[4-(1,1-dimethylethyl)phenyl]propoxy]quinazoline] | + (+ = 20-89% control at 400 ppm) | ++ (++ = 90-100% control at 400 ppm) | 0% | 80% | 30% | 60% | - (- = 0-19% control at 400 ppm) | - (- = 0-19% control at 400 ppm) | ++ (++ = 90-100% control at 400 ppm) | 0% | 0% | 0% | 0%
CC(COc1ncnc2ccccc12)c1ccc(Oc2ccccc2)cc1 (centres unmarked) [Example 161, 4-[2-(4-phenoxyphenyl)propoxy]quinazoline] | + (+ = 20-89% control at 400 ppm) | + (+ = 20-89% control at 400 ppm) | 70% | 0% | 30% | 0% | - (- = 0-19% control at 400 ppm) | ++ (++ = 90-100% control at 400 ppm) | - (- = 0-19% control at 400 ppm) | 20% | 100% | 0% | 100%
